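48-hour exposure; five concentrations; linearly interpolated endpoints. GI50 marks 50% less growth. TGI denotes the concentration required for complete inhibition of growth.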
Assays:
Experiment in all cases: DTP human tumour cell line panel, 48 h
786-0 renal = system: 786-0 renal
A498 renal = system: A498 renal
A549 NSCLC = system: A549 NSCLC
ACHN renal = system: ACHN renal
BT-549 breast = system: BT-549 breast
CAKI-1 renal = system: CAKI-1 renal
CCRF-CEM leukemia = system: CCRF-CEM leukemia
COLO 205 colon = system: COLO 205 colon
DU-145 prostate = system: DU-145 prostate
EKVX NSCLC = system: EKVX NSCLC
HCC-2998 colon = system: HCC-2998 colon
HCT-116 colon = system: HCT-116 colon
HCT-15 colon = system: HCT-15 colon
HL-60(TB) leukemia = system: HL-60(TB) leukemia
HOP-62 NSCLC = system: HOP-62 NSCLC
HS 578T breast = system: HS 578T breast
HT29 colon = system: HT29 colon
IGROV1 ovarian = system: IGROV1 ovarian
K-562 leukemia = system: K-562 leukemia
KM12 colon = system: KM12 colon
LOX IMVI melanoma = system: LOX IMVI melanoma
M14 melanoma = system: M14 melanoma
MALME-3M melanoma = system: MALME-3M melanoma
MCF7 breast = system: MCF7 breast
MDA-MB-231 breast = system: MDA-MB-231 breast
MDA-MB-435 = system: MDA-MB-435
NCI-H226 lung = system: NCI-H226 lung
NCI-H23 lung = system: NCI-H23 lung
NCI-H460 lung = system: NCI-H460 lung
NCI-H522 lung = system: NCI-H522 lung
NCI/ADR-RES ovarian = system: NCI/ADR-RES ovarian
OVCAR-3 ovarian = system: OVCAR-3 ovarian
OVCAR-4 ovarian = system: OVCAR-4 ovarian
OVCAR-5 ovarian = system: OVCAR-5 ovarian
OVCAR-8 ovarian = system: OVCAR-8 ovarian
PC-3 prostate = system: PC-3 prostate
RPMI-8226 leukemia = system: RPMI-8226 leukemia
RXF 393 renal = system: RXF 393 renal
SF-268 CNS = system: SF-268 CNS
SF-295 CNS = system: SF-295 CNS
SF-539 CNS = system: SF-539 CNS
SK-MEL-2 melanoma = system: SK-MEL-2 melanoma
SK-MEL-28 melanoma = system: SK-MEL-28 melanoma
SK-MEL-5 melanoma = system: SK-MEL-5 melanoma
SK-OV-3 ovarian = system: SK-OV-3 ovarian
SN12C renal = system: SN12C renal
SNB-19 CNS = system: SNB-19 CNS
SNB-75 CNS = system: SNB-75 CNS
SR leukemia = system: SR leukemia
SW-620 colon = system: SW-620 colon
T-47D breast = system: T-47D breast
TK-10 renal = system: TK-10 renal
U251 CNS = system: U251 CNS
UACC-257 melanoma = system: UACC-257 melanoma
UACC-62 melanoma = system: UACC-62 melanoma
UO-31 renal = system: UO-31 renal
MOLT-4 leukemia = system: MOLT-4 leukemia

## COC(=O)C1=C(OC(=O)/C(=C/c2ccccc2)c2ccccc2)C(C(=O)OC)[C@@]2(O)[C@@H](C(=O)OC)[C@H](C)C[C@@H]1[C@@H]2C(=O)OC (stereo not given in full)
786-0 renal
  TGI: > 100 µM
A498 renal
  TGI: > 100 µM
A549 NSCLC
  TGI: > 100 µM
ACHN renal
  TGI: > 100 µM
BT-549 breast
  TGI: > 100 µM
CAKI-1 renal
  TGI: > 100 µM
CCRF-CEM leukemia
  TGI: > 100 µM
COLO 205 colon
  TGI: > 100 µM
DU-145 prostate
  TGI: > 100 µM
EKVX NSCLC
  TGI: > 100 µM
HCC-2998 colon
  TGI: > 100 µM
HCT-116 colon
  TGI: > 100 µM
HCT-15 colon
  TGI: > 100 µM
HL-60(TB) leukemia
  TGI: > 100 µM
HOP-62 NSCLC
  TGI: > 100 µM
HS 578T breast
  TGI: > 100 µM
HT29 colon
  TGI: > 100 µM
IGROV1 ovarian
  TGI: > 100 µM
K-562 leukemia
  TGI: > 100 µM
KM12 colon
  TGI: > 100 µM
LOX IMVI melanoma
  TGI: > 100 µM
M14 melanoma
  TGI: > 100 µM
MALME-3M melanoma
  TGI: > 100 µM
MCF7 breast
  TGI: > 100 µM
MDA-MB-231 breast
  TGI: > 100 µM
MDA-MB-435
  TGI: > 100 µM
NCI-H226 lung
  TGI: > 100 µM
NCI-H23 lung
  TGI: > 100 µM
NCI-H460 lung
  TGI: > 100 µM
NCI-H522 lung
  TGI: > 100 µM
NCI/ADR-RES ovarian
  TGI: > 100 µM
OVCAR-3 ovarian
  TGI: > 100 µM
OVCAR-4 ovarian
  TGI: > 100 µM
OVCAR-5 ovarian
  TGI: > 100 µM
OVCAR-8 ovarian
  TGI: > 100 µM
PC-3 prostate
  TGI: > 100 µM
RPMI-8226 leukemia
  TGI: > 100 µM
RXF 393 renal
  TGI: > 100 µM
SF-268 CNS
  TGI: > 100 µM
SF-295 CNS
  TGI: > 100 µM
SF-539 CNS
  TGI: > 100 µM
SK-MEL-2 melanoma
  TGI: > 100 µM
SK-MEL-28 melanoma
  TGI: > 100 µM
SK-MEL-5 melanoma
  TGI: > 100 µM
SK-OV-3 ovarian
  TGI: > 100 µM
SN12C renal
  TGI: > 100 µM
SNB-19 CNS
  TGI: > 100 µM
SNB-75 CNS
  TGI: > 100 µM
SR leukemia
  TGI: > 100 µM
SW-620 colon
  TGI: > 100 µM
T-47D breast
  TGI: > 100 µM
TK-10 renal
  TGI: > 100 µM
U251 CNS
  TGI: > 100 µM
UACC-257 melanoma
  TGI: > 100 µM
UACC-62 melanoma
  TGI: > 100 µM
UO-31 renal
  TGI: > 100 µM

## Nc1nonc1-c1nc2cnccc2n1C1CCCCC1
786-0 renal
  GI50: 11.1 µM
  TGI: > 25 µM
A498 renal
  GI50: 5.09 µM
  TGI: > 25 µM
A549 NSCLC
  GI50: 13 µM
  TGI: > 25 µM
ACHN renal
  GI50: 12 µM
  TGI: > 25 µM
BT-549 breast
  GI50: 6.29 µM
  TGI: > 25 µM
CAKI-1 renal
  GI50: 11.6 µM
  TGI: > 25 µM
CCRF-CEM leukemia
  GI50: 7.84 µM
  TGI: > 25 µM
COLO 205 colon
  GI50: 6.9 µM
  TGI: > 25 µM
DU-145 prostate
  GI50: 20.5 µM
  TGI: > 25 µM
EKVX NSCLC
  GI50: > 20.3 µM
  TGI: > 25 µM
HCC-2998 colon
  GI50: > 25 µM
  TGI: > 25 µM
HCT-116 colon
  GI50: 7.45 µM
  TGI: > 25 µM
HCT-15 colon
  GI50: 13.4 µM
  TGI: > 25 µM
HL-60(TB) leukemia
  GI50: 7.25 µM
  TGI: 19.6 µM
HOP-62 NSCLC
  GI50: > 25 µM
  TGI: > 25 µM
HS 578T breast
  GI50: 13.9 µM
  TGI: > 25 µM
HT29 colon
  GI50: 9.87 µM
  TGI: > 25 µM
IGROV1 ovarian
  GI50: > 23.1 µM
  TGI: > 25 µM
K-562 leukemia
  GI50: 11 µM
  TGI: > 25 µM
KM12 colon
  GI50: 9.16 µM
  TGI: > 25 µM
LOX IMVI melanoma
  GI50: 16.3 µM
  TGI: > 25 µM
M14 melanoma
  GI50: 24 µM
  TGI: > 25 µM
MALME-3M melanoma
  GI50: > 25 µM
  TGI: > 25 µM
MCF7 breast
  GI50: 9.44 µM
  TGI: > 25 µM
MDA-MB-231 breast
  GI50: > 25 µM
  TGI: > 25 µM
MDA-MB-435
  GI50: 22.5 µM
  TGI: > 25 µM
MOLT-4 leukemia
  GI50: 12 µM
  TGI: > 25 µM
NCI-H226 lung
  GI50: 12.9 µM
  TGI: > 25 µM
NCI-H23 lung
  GI50: > 18.5 µM
  TGI: > 25 µM
NCI-H460 lung
  GI50: 10.3 µM
  TGI: > 25 µM
NCI-H522 lung
  GI50: 6.01 µM
  TGI: 23.4 µM
NCI/ADR-RES ovarian
  GI50: > 22.1 µM
  TGI: > 25 µM
OVCAR-3 ovarian
  GI50: 10.7 µM
  TGI: > 25 µM
OVCAR-4 ovarian
  GI50: > 16.6 µM
  TGI: > 25 µM
OVCAR-5 ovarian
  GI50: > 25 µM
  TGI: > 25 µM
OVCAR-8 ovarian
  GI50: 12.8 µM
  TGI: > 25 µM
PC-3 prostate
  GI50: > 19.9 µM
  TGI: > 25 µM
RPMI-8226 leukemia
  GI50: 16.1 µM
  TGI: > 25 µM
RXF 393 renal
  GI50: 4.8 µM
  TGI: > 25 µM
SF-268 CNS
  GI50: > 25 µM
  TGI: > 25 µM
SF-295 CNS
  GI50: 9.48 µM
  TGI: > 25 µM
SF-539 CNS
  GI50: 3.7 µM
  TGI: > 25 µM
SK-MEL-2 melanoma
  GI50: 12 µM
  TGI: > 25 µM
SK-MEL-28 melanoma
  GI50: > 25 µM
  TGI: > 25 µM
SK-MEL-5 melanoma
  GI50: 6.04 µM
  TGI: > 19.2 µM
SK-OV-3 ovarian
  GI50: 18.8 µM
  TGI: > 25 µM
SN12C renal
  GI50: 12.5 µM
  TGI: > 25 µM
SNB-19 CNS
  GI50: > 25 µM
  TGI: > 25 µM
SNB-75 CNS
  GI50: 2.42 µM
  TGI: > 25 µM
SR leukemia
  GI50: 7.35 µM
  TGI: > 25 µM
SW-620 colon
  GI50: 14 µM
  TGI: > 25 µM
T-47D breast
  GI50: 13.3 µM
  TGI: > 25 µM
TK-10 renal
  GI50: 3.44 µM
  TGI: > 25 µM
U251 CNS
  GI50: 16.5 µM
  TGI: > 25 µM
UACC-257 melanoma
  GI50: > 25 µM
  TGI: > 25 µM
UACC-62 melanoma
  GI50: 14.3 µM
  TGI: > 25 µM
UO-31 renal
  GI50: > 24 µM
  TGI: > 25 µM

— PubChem BioAssay (NCI)
